Reference: ChEMBL document CHEMBL1909046, “DrugMatrix in vitro pharmacology data”
Where a SMILES comes first, the peptide text is derived from it. Bridges are numbered along the chain shown (N, C = ends). [ ]: non-standard residue; d: D form. The star is where a group is joined. Threoninol(2S,3R) = C[C@@H](O)[C@H](CO)N*

Assays:
[1] = target: Aldo-keto reductase family 1 member B1 (Rattus norvegicus, UniProt P07943); experiment: biochemical; assay type: tissue-based, Lens of camera-type eye;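 further: inhibition of aldose reductase enzyme activity, measured with DL-glyceraldehyde as the substrate; in other assays of this panel Not Active means under 50% inhibition at 10 µM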
[2] = target: T1, Alpha-2A adrenergic receptor (Homo sapiens, UniProt P08913); assay type: cell membranes, Sf9, Membrane; settings: sf9; further: in other assays of this panel Not Active means under 50% inhibition at 10 µM
T1 sequence (P08913 whole entry): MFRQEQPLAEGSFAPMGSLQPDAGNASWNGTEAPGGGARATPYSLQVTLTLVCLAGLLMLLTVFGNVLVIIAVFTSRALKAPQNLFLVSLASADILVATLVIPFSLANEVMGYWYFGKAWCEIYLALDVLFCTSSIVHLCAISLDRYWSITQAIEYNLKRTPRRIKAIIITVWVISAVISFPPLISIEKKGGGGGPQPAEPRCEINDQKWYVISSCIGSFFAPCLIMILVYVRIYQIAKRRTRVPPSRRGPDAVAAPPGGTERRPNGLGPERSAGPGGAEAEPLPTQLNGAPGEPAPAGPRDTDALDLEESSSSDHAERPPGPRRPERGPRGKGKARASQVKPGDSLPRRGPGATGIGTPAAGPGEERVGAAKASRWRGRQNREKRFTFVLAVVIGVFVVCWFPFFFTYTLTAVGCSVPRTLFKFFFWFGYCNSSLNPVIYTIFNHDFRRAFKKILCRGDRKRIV

[3] = DRUGMATRIX: Interleukin IL-1 radioligand binding (ligand: [125I] interleukin 1beta); assay type: cell membranes, Membrane; settings: nih3t3; Not Active = under 50% inhibition at 10 µM
Acetylcholinesterase = Acetylcholinesterase (Homo sapiens, UniProt P22303); experiment: DRUGMATRIX: Acetylcholinesterase enzyme inhibition (substrate: acetylthiocholine); assay type: cell-based, HEK293; settings: hek293; Not Active = under 50% inhibition at 10 µM
Acetylcholinesterase, sequence (P22303 whole entry): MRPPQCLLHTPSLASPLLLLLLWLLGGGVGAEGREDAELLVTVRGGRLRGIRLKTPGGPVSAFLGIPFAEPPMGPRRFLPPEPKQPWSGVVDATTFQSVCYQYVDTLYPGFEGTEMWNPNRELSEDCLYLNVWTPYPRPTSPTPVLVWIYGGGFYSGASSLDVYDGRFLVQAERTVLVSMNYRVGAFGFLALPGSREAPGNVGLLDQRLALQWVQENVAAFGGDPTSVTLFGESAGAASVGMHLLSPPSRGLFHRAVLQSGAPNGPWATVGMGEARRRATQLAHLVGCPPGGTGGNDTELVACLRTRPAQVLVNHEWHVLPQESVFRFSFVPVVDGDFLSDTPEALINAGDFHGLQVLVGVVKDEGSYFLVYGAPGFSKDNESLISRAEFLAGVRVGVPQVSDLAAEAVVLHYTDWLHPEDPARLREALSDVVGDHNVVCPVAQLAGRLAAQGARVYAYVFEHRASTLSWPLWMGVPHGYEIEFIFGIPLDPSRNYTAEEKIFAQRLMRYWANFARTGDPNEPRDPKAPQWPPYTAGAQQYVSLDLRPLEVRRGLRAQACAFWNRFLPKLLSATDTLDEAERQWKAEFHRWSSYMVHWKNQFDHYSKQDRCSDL

Interstitial collagenase = target: T2, Interstitial collagenase (Homo sapiens, UniProt P03956); experiment: biochemical; assay type: tissue-based, Rheumatoid synovial fibroblasts;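 further: MMP-1 enzyme inhibition assay using a peptide substrate; in other assays of this panel Not Active means under 50% inhibition at 10 µM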
T2 sequence (P03956 whole entry): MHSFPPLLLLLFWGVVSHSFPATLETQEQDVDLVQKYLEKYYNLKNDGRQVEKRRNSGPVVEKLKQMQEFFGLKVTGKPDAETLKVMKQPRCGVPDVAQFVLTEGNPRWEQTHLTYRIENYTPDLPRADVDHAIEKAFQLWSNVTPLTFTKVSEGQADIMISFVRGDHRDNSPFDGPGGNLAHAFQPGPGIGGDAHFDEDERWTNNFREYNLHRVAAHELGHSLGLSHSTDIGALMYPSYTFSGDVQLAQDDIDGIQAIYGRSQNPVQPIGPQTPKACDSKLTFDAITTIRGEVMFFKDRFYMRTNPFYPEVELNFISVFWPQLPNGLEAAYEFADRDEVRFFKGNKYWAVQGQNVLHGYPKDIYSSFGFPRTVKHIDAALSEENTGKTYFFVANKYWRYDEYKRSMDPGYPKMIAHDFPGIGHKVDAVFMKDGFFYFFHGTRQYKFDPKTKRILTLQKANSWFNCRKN

C[C@]12CC[C@@H]3c4ccc(O)cc4CC[C@H]3[C@@H]1CC[C@@H]2O [ESTRADIOL]
Not Active: IC50 [1] | IC50 [2] | IC50 [3] | Ki [3] | IC50 (Acetylcholinesterase) | IC50 (Interstitial collagenase)

CCOC(=O)C1=C(C)NC(C)=C(C(=O)OC)C1c1cccc([N+](=O)[O-])c1 (configuration not stated) [NITRENDIPINE]
Not Active: IC50 [1] | IC50 [2] | IC50 [3] | Ki [3] | IC50 (Acetylcholinesterase) | IC50 (Interstitial collagenase)

CC1=C(C(=O)O)N2C(=O)[C@@H](NC(=O)[C@H](N)c3ccccc3)[C@H]2SC1 [CEPHALEXIN ANHYDROUS]
Not Active: IC50 [1] | IC50 [2] | IC50 [3] | Ki [3] | IC50 (Acetylcholinesterase) | IC50 (Interstitial collagenase)

CN(C)/N=N/c1[nH]cnc1C(N)=O [DACARBAZINE]
Not Active: IC50 [1] | IC50 [2] | IC50 [3] | Ki [3] | IC50 (Acetylcholinesterase) | IC50 (Interstitial collagenase)

COc1ccc2c(c1)[C@]13CCCC[C@@H]1[C@H](C2)N(C)CC3 [DEXTROMETHORPHAN]
Not Active: IC50 [1] | IC50 [2] | IC50 [3] | Ki [3] | IC50 (Acetylcholinesterase) | IC50 (Interstitial collagenase)

COc1ccccc1C(=O)N1CCC(Cc2ccccc2)CC1
Not Active: IC50 [1] | IC50 [2] | IC50 [3] | Ki [3] | IC50 (Acetylcholinesterase) | IC50 (Interstitial collagenase)

C=C1CC[C@H](O)C/C1=C/C=C1\CCC[C@]2(C)[C@@H]([C@H](C)CCCC(C)C)CC[C@@H]12 [CHOLECALCIFEROL]
Not Active: IC50 [1] | IC50 [2] | IC50 [3] | Ki [3] | IC50 (Acetylcholinesterase) | IC50 (Interstitial collagenase)

COc1cc2c(c3oc(=O)c4c(c13)CCC4=O)[C@@H]1C=CO[C@@H]1O2 [AFLATOXIN]
Not Active: IC50 [1] | Ki [1] | IC50 [2] | Ki [2] | IC50 [3] | Ki [3] | IC50 (Acetylcholinesterase) | Ki (Acetylcholinesterase) | IC50 (Interstitial collagenase) | Ki (Interstitial collagenase)

CC(C)Cc1ccc(C(C)C(=O)O)cc1 (configuration not stated) [IBUPROFEN]
Not Active: IC50 [1] | IC50 [2] | IC50 [3] | Ki [3] | IC50 (Acetylcholinesterase) | IC50 (Interstitial collagenase)

CC(C)(C(=O)c1cccnc1)c1cccnc1 [METYRAPONE]
Not Active: IC50 [1] | IC50 [2] | IC50 [3] | Ki [3] | IC50 (Acetylcholinesterase) | IC50 (Interstitial collagenase)

Cc1ncc([N+](=O)[O-])n1CCO [METRONIDAZOLE]
Not Active: IC50 [1] | IC50 [2] | IC50 [3] | Ki [3] | IC50 (Acetylcholinesterase) | IC50 (Interstitial collagenase)

C[C@@H](O)[C@H](CO)NC(=O)[C@@H]1CSSC[C@H](NC(=O)[C@H](N)Cc2ccccc2)C(=O)N[C@@H](Cc2ccccc2)C(=O)N[C@H](Cc2c[nH]c3ccccc23)C(=O)N[C@@H](CCCCN)C(=O)N[C@@H]([C@@H](C)O)C(=O)N1 (H-[dF]CF[dW]KTC-{Threoninol(2S,3R)}; disulfide 2-7)
Not Active: IC50 [1] | IC50 [2] | IC50 [3] | Ki [3] | IC50 (Acetylcholinesterase) | IC50 (Interstitial collagenase)

COc1ccc2[nH]c([S+]([O-])Cc3ncc(C)c(OC)c3C)nc2c1 (configuration not stated) [OMEPRAZOLE]
Not Active: IC50 [1] | IC50 [2] | IC50 [3] | Ki [3] | IC50 (Acetylcholinesterase) | IC50 (Interstitial collagenase)
